Measurements reported in ChEMBL document CHEMBL1149412, “Novel human lipoxygenase inhibitors discovered using virtual screening with homology models” (J Med Chem, 2006).

Test: Partition coefficient of the compound, log P
Assay type: physicochemical
Conditions: octanol/water

Row | logP | Structure (SMILES)
1 | 5.42 | Cc1cccc(C(=N)NOC(=O)c2ccc(C)cc2Cl)c1
2 | 4.64 | Nc1sc2c(c1C(=O)Nc1cccc(Cl)c1)CCCC2
3 | 3.93 | CCc1cc(-c2n[nH]cc2Oc2ccccc2)c(O)cc1O
